In this assay the target is Cationic trypsin (Bos taurus). Put plainly: Inhibitory constant against bovine trypsin for general specificity against serine proteases.

As usually defined, the Ki is the equilibrium dissociation constant of an inhibitor or competing ligand from its target. A higher Ki goes with lower affinity. `Cc1c(F)c(Oc2cccc(C(=N)N)c2)nc(Oc2cccc(C(N)=O)c2)c1F` [3-[6-(3-Carbamimidoyl-phenoxy)-3,5-difluoro-4-methyl-pyridin-2-yloxy]-benzamide] showed a Ki greater than 5 µM.

Source of the values: BindingDB's records for doi:10.1021/jm0200660 (Berlex Biosciences, 2002).
